Experimental data: patent US20230085307A1, “PYRIDAZINONE COMPOUND AND HERBICIDE” (NISSAN CHEMICAL CORPORATION, priority 2019, published 2023)

Columns and labels:
barnyard grass [1] = assay: Test Example 3: herbicidal effect by foliage application, Wagner pot (Table 18, symbol H); format: in vivo, barnyard grass (Echinochloa crus-galli); conditions: 320 g/ha
Method in brief: (§1)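 Plants were sown in alluvial soil held under 0.1–0.5 cm standing water and grown 14 days in a greenhouse at 25–30 °C. An emulsifiable formulation, water-diluted to the set dose, was then sprayed onto the foliage, and effects were scored three weeks later using previously defined criteria.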

Chinese sprangletop = assay: Test Example 3: herbicidal effect by foliage application, Wagner pot (Table 18, symbol D); format: in vivo, chinese sprangletop (Leptochloa chinensis); conditions: 320 g/ha
Method in brief: as §1

rice flat sedge = assay: Test Example 3: herbicidal effect by foliage application, Wagner pot (Table 18, symbol E); format: in vivo, rice flat sedge (Cyperus iria); conditions: 320 g/ha
Method in brief: as §1

southern crabgrass [2] = assay: Test Example 4: herbicidal effect by soil treatment (Table 19, symbol F); format: in vivo, southern crabgrass (Digitaria ciliaris); conditions: amount of applied herbicide 320 g/ha
Method in brief: (§2)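 Step 1: sow seeds in sterilized diluvial soil, cover ~1.5 cm. Step 2: spray diluted emulsion onto soil surface at predetermined rate. Step 3: greenhouse, 25–30° C, three weeks. Step 4: grade effect on each plant by earlier criteria.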

green foxtail [3] = assay: Test Example 4: herbicidal effect by soil treatment (Table 19, symbol G); format: in vivo, green foxtail (Setaria viridis); conditions: amount of applied herbicide 320 g/ha
Method in brief: as §2

barnyard grass [4] = assay: Test Example 4: herbicidal effect by soil treatment (Table 19, symbol H); format: in vivo, barnyard grass (Echinochloa crus-galli); conditions: amount of applied herbicide 320 g/ha
Method in brief: as §2

wild oat [5] = assay: Test Example 4: herbicidal effect by soil treatment (Table 19, symbol I); format: in vivo, wild oat (Avena fatua); conditions: amount of applied herbicide 320 g/ha
Method in brief: as §2

blackgrass [6] = assay: Test Example 4: herbicidal effect by soil treatment (Table 19, symbol J); format: in vivo, blackgrass (Alopecurus myosuroides); conditions: amount of applied herbicide 320 g/ha
Method in brief: as §2

Italian ryegrass [7] = assay: Test Example 4: herbicidal effect by soil treatment (Table 19, symbol K); format: in vivo, Italian ryegrass (Lolium multiflorum); conditions: amount of applied herbicide 320 g/ha
Method in brief: as §2

windgrass [8] = assay: Test Example 4: herbicidal effect by soil treatment (Table 19, symbol L); format: in vivo, windgrass (Apera spica-venti); conditions: amount of applied herbicide 320 g/ha
Method in brief: as §2

velvetleaf [9] = assay: Test Example 4: herbicidal effect by soil treatment (Table 19, symbol M); format: in vivo, velvetleaf (Abutilon theophrasti); conditions: amount of applied herbicide 320 g/ha
Method in brief: as §2

redroot pigweed [10] = assay: Test Example 4: herbicidal effect by soil treatment (Table 19, symbol N); format: in vivo, redroot pigweed (Amaranthus retroflexus); conditions: amount of applied herbicide 320 g/ha
Method in brief: as §2

lambsquarters [11] = assay: Test Example 4: herbicidal effect by soil treatment (Table 19, symbol O); format: in vivo, lambsquarters (Chenopodium album); conditions: amount of applied herbicide 320 g/ha
Method in brief: as §2

chickweed [12] = assay: Test Example 4: herbicidal effect by soil treatment (Table 19, symbol P); format: in vivo, common chickweed (Stellaria media); conditions: amount of applied herbicide 320 g/ha
Method in brief: as §2

false cleavers [13] = assay: Test Example 4: herbicidal effect by soil treatment (Table 19, symbol Q); format: in vivo, false cleavers (Galium spurium); conditions: amount of applied herbicide 320 g/ha
Method in brief: as §2

persian speedwell [14] = assay: Test Example 4: herbicidal effect by soil treatment (Table 19, symbol R); format: in vivo, Persian speedwell (Veronica persica); conditions: amount of applied herbicide 320 g/ha
Method in brief: as §2

southern crabgrass [15] = assay: Test Example 5: herbicidal effect by foliage application, plastic box (Table 20, symbol F); format: in vivo, southern crabgrass (Digitaria ciliaris); conditions: foliage application, 320 g/ha, three weeks after application
Method in brief: (§3)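 Foliar spray test: emulsion formulation diluted in water to a set application rate, sprayed onto 14-day-old plants raised in diluvial soil at 25° C to 30° C under glass. Both herbicidal effect and crop effect rated visually three weeks later.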

green foxtail [16] = assay: Test Example 5: herbicidal effect by foliage application, plastic box (Table 20, symbol G); format: in vivo, green foxtail (Setaria viridis); conditions: foliage application, 320 g/ha, three weeks after application
Method in brief: as §3

barnyard grass [17] = assay: Test Example 5: herbicidal effect by foliage application, plastic box (Table 20, symbol H); format: in vivo, barnyard grass (Echinochloa crus-galli); conditions: foliage application, 320 g/ha, three weeks after application
Method in brief: as §3

wild oat [18] = assay: Test Example 5: herbicidal effect by foliage application, plastic box (Table 20, symbol I); format: in vivo, wild oat (Avena fatua); conditions: foliage application, 320 g/ha, three weeks after application
Method in brief: as §3

blackgrass [19] = assay: Test Example 5: herbicidal effect by foliage application, plastic box (Table 20, symbol J); format: in vivo, blackgrass (Alopecurus myosuroides); conditions: foliage application, 320 g/ha, three weeks after application
Method in brief: as §3

Italian ryegrass [20] = assay: Test Example 5: herbicidal effect by foliage application, plastic box (Table 20, symbol K); format: in vivo, Italian ryegrass (Lolium multiflorum); conditions: foliage application, 320 g/ha, three weeks after application
Method in brief: as §3

windgrass [21] = assay: Test Example 5: herbicidal effect by foliage application, plastic box (Table 20, symbol L); format: in vivo, windgrass (Apera spica-venti); conditions: foliage application, 320 g/ha, three weeks after application
Method in brief: as §3

velvetleaf [22] = assay: Test Example 5: herbicidal effect by foliage application, plastic box (Table 20, symbol M); format: in vivo, velvetleaf (Abutilon theophrasti); conditions: foliage application, 320 g/ha, three weeks after application
Method in brief: as §3

redroot pigweed [23] = assay: Test Example 5: herbicidal effect by foliage application, plastic box (Table 20, symbol N); format: in vivo, redroot pigweed (Amaranthus retroflexus); conditions: foliage application, 320 g/ha, three weeks after application
Method in brief: as §3

lambsquarters [24] = assay: Test Example 5: herbicidal effect by foliage application, plastic box (Table 20, symbol O); format: in vivo, lambsquarters (Chenopodium album); conditions: foliage application, 320 g/ha, three weeks after application
Method in brief: as §3

chickweed [25] = assay: Test Example 5: herbicidal effect by foliage application, plastic box (Table 20, symbol P); format: in vivo, common chickweed (Stellaria media); conditions: foliage application, 320 g/ha, three weeks after application
Method in brief: as §3

false cleavers [26] = assay: Test Example 5: herbicidal effect by foliage application, plastic box (Table 20, symbol Q); format: in vivo, false cleavers (Galium spurium); conditions: foliage application, 320 g/ha, three weeks after application
Method in brief: as §3

persian speedwell [27] = assay: Test Example 5: herbicidal effect by foliage application, plastic box (Table 20, symbol R); format: in vivo, Persian speedwell (Veronica persica); conditions: foliage application, 320 g/ha, three weeks after application
Method in brief: as §3

Structure (SMILES) | herbicidal effect on H (barnyard grass), rating 0-5 (barnyard grass [1]) | herbicidal effect on D (Chinese sprangletop), rating 0-5 (Chinese sprangletop) | herbicidal effect on E (rice flat sedge), rating 0-5 (rice flat sedge) | herbicidal effect rating, F: southern crabgrass (southern crabgrass [2]) | herbicidal effect rating, G: green foxtail (green foxtail [3]) | herbicidal effect rating, H: barnyard grass (barnyard grass [4]) | herbicidal effect rating, I: wild oat (wild oat [5]) | herbicidal effect rating, J: blackgrass (blackgrass [6]) | herbicidal effect rating, K: Italian ryegrass (Italian ryegrass [7]) | herbicidal effect rating, L: windgrass (windgrass [8]) | herbicidal effect rating, M: velvetleaf (velvetleaf [9]) | herbicidal effect rating, N: redroot pigweed (redroot pigweed [10]) | herbicidal effect rating, O: lambsquarters (lambsquarters [11]) | herbicidal effect rating, P: chickweed (chickweed [12]) | herbicidal effect rating, Q: false cleavers (false cleavers [13]) | herbicidal effect rating, R: persian speedwell (persian speedwell [14]) | herbicidal effect grade, F: southern crabgrass (southern crabgrass [15]) | herbicidal effect grade, G: green foxtail (green foxtail [16]) | herbicidal effect grade, H: barnyard grass (barnyard grass [17]) | herbicidal effect grade, I: wild oat (wild oat [18]) | other results
CCCCOc1ccccc1-c1sc2ccccc2c1-c1c(OC(=O)CCC)c(C)nn(C)c1=O [1-023] | 1 (Herbicidal rate of 5% or more and less than 20%) | 0 (Herbicidal rate of 5% or less (almost no effect)) | 3 (Herbicidal rate of 40% or more and less than 70%) | 0 (Herbicidal rate of 5% or less (almost no effect)) | 2 (Herbicidal rate of 20% or more and less than 40%) | 0 (Herbicidal rate of 5% or less (almost no effect)) | 0 (Herbicidal rate of 5% or less (almost no effect)) | 0 (Herbicidal rate of 5% or less (almost no effect)) | 0 (Herbicidal rate of 5% or less (almost no effect)) | 0 (Herbicidal rate of 5% or less (almost no effect)) | 0 (Herbicidal rate of 5% or less (almost no effect)) | 0 (Herbicidal rate of 5% or less (almost no effect)) | 0 (Herbicidal rate of 5% or less (almost no effect)) | 0 (Herbicidal rate of 5% or less (almost no effect)) | 0 (Herbicidal rate of 5% or less (almost no effect)) | 0 (Herbicidal rate of 5% or less (almost no effect)) | 0 (Herbicidal rate of 5% or less (almost no effect)) | 0 (Herbicidal rate of 5% or less (almost no effect)) | 0 (Herbicidal rate of 5% or less (almost no effect)) | 0 (Herbicidal rate of 5% or less (almost no effect)) | herbicidal effect grade, J: blackgrass (blackgrass [19]): 0 (Herbicidal rate of 5% or less (almost no effect)); herbicidal effect grade, K: Italian ryegrass (Italian ryegrass [20]): 0 (Herbicidal rate of 5% or less (almost no effect)); herbicidal effect grade, L: windgrass (windgrass [21]): 0 (Herbicidal rate of 5% or less (almost no effect)); herbicidal effect grade, M: velvetleaf (velvetleaf [22]): 0 (Herbicidal rate of 5% or less (almost no effect)); herbicidal effect grade, N: redroot pigweed (redroot pigweed [23]): 0 (Herbicidal rate of 5% or less (almost no effect)); herbicidal effect grade, O: lambsquarters (lambsquarters [24]): 0 (Herbicidal rate of 5% or less (almost no effect)); herbicidal effect grade, P: chickweed (chickweed [25]): 5 (Herbicidal rate of 90% or more (almost completely withered)); herbicidal effect grade, Q: false cleavers (false cleavers [26]): 2 (Herbicidal rate of 20% or more and less than 40%); herbicidal effect grade, R: persian speedwell (persian speedwell [27]): 3 (Herbicidal rate of 40% or more and less than 70%)
CON=C(C)c1ccc(-c2sc3ccccc3c2-c2c(O)c(C)nn(C)c2=O)cc1 [1-043] | 5 (Herbicidal rate of 90% or more (almost completely withered)) | 5 (Herbicidal rate of 90% or more (almost completely withered)) | 0 (Herbicidal rate of 5% or less (almost no effect)) | 0 (Herbicidal rate of 5% or less (almost no effect)) | 5 (Herbicidal rate of 90% or more (almost completely withered)) | 3 (Herbicidal rate of 40% or more and less than 70%) | 0 (Herbicidal rate of 5% or less (almost no effect)) | 0 (Herbicidal rate of 5% or less (almost no effect)) | 5 (Herbicidal rate of 90% or more (almost completely withered)) | 0 (Herbicidal rate of 5% or less (almost no effect)) | 0 (Herbicidal rate of 5% or less (almost no effect)) | 5 (Herbicidal rate of 90% or more (almost completely withered)) | 5 (Herbicidal rate of 90% or more (almost completely withered)) | 4 (Herbicidal rate of 70% or more and less than 90%) | 0 (Herbicidal rate of 5% or less (almost no effect)) | 4 (Herbicidal rate of 70% or more and less than 90%) | 4 (Herbicidal rate of 70% or more and less than 90%) | 4 (Herbicidal rate of 70% or more and less than 90%) | 3 (Herbicidal rate of 40% or more and less than 70%) | 2 (Herbicidal rate of 20% or more and less than 40%) | herbicidal effect grade, J: blackgrass (blackgrass [19]): 4 (Herbicidal rate of 70% or more and less than 90%); herbicidal effect grade, K: Italian ryegrass (Italian ryegrass [20]): 5 (Herbicidal rate of 90% or more (almost completely withered)); herbicidal effect grade, L: windgrass (windgrass [21]): 1 (Herbicidal rate of 5% or more and less than 20%); herbicidal effect grade, M: velvetleaf (velvetleaf [22]): 5 (Herbicidal rate of 90% or more (almost completely withered)); herbicidal effect grade, N: redroot pigweed (redroot pigweed [23]): 5 (Herbicidal rate of 90% or more (almost completely withered)); herbicidal effect grade, O: lambsquarters (lambsquarters [24]): 4 (Herbicidal rate of 70% or more and less than 90%); herbicidal effect grade, P: chickweed (chickweed [25]): 5 (Herbicidal rate of 90% or more (almost completely withered)); herbicidal effect grade, Q: false cleavers (false cleavers [26]): 2 (Herbicidal rate of 20% or more and less than 40%); herbicidal effect grade, R: persian speedwell (persian speedwell [27]): 5 (Herbicidal rate of 90% or more (almost completely withered))
